The test system of one assay is Del19/T790M/C797S EGFR. Briefly: EGFR degradation HTRF assay in H1975-clone #28 (DTC) cells. Format: cell-based. The note with it: H1975 # 28 DTC (Del19/T790M/C797S), 16h treatment; for DC50: HTRF; for Dmax (%): maximum percentage of degradation. A digest of the protocol:
(§1)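 H1975 clones stably overexpressing mutant EGFR by lentivirus, with endogenous EGFR knocked out by sgRNA and homozygosity confirmed by sequencing, were treated 16 h at 37 °C with compounds in 0.2% DMSO medium, 8 doses from 10 uM in 5-fold dilution. Lysates were read by HTRF (665/620 nm); DC50 came from a four-parameter fit.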

The next assay addresses T1, L858R/T790M/C797S EGFR (Homo sapiens, UniProt P00533, C797S/L858R/T790M).
T1 construct: expressed in transfected cells; host or cells: H1975 clone #25 (lentiviral over-expression, endogenous EGFR knocked out by sgRNA)
Put plainly: EGFR degradation HTRF assay in H1975-clone #25 (LTC) cells. The format is cell-based. The settings on record: 16h treatment; for DC50: H1975 # 25-LTC (L858R/T790M/C797S), HTRF; for Dmax: NCI-H1975, H1975 # 25-LTC (L858R/T790M/C797S), maximum percentage of degradation. A digest of the protocol:
as §1
For orientation: In TR-FRET formats the signal depends on donor and acceptor labels being close together.

Here are results for nine compounds from patent publication US20240342292A1, “Compounds for the Degradation of EGFR Kinase” (BeiGene Switzerland GmbH, priority 2021, published 2024).

SMILES strings stand for the structures.

The term DC50 denotes the midpoint of the concentration-degradation curve. A high value points to a less potent degrader. What is called Dmax is the greatest extent of degradation seen. Read a high Dmax as deep degradation.

T1 sequence (P00533 25-1210 T790M/C797S/L858R): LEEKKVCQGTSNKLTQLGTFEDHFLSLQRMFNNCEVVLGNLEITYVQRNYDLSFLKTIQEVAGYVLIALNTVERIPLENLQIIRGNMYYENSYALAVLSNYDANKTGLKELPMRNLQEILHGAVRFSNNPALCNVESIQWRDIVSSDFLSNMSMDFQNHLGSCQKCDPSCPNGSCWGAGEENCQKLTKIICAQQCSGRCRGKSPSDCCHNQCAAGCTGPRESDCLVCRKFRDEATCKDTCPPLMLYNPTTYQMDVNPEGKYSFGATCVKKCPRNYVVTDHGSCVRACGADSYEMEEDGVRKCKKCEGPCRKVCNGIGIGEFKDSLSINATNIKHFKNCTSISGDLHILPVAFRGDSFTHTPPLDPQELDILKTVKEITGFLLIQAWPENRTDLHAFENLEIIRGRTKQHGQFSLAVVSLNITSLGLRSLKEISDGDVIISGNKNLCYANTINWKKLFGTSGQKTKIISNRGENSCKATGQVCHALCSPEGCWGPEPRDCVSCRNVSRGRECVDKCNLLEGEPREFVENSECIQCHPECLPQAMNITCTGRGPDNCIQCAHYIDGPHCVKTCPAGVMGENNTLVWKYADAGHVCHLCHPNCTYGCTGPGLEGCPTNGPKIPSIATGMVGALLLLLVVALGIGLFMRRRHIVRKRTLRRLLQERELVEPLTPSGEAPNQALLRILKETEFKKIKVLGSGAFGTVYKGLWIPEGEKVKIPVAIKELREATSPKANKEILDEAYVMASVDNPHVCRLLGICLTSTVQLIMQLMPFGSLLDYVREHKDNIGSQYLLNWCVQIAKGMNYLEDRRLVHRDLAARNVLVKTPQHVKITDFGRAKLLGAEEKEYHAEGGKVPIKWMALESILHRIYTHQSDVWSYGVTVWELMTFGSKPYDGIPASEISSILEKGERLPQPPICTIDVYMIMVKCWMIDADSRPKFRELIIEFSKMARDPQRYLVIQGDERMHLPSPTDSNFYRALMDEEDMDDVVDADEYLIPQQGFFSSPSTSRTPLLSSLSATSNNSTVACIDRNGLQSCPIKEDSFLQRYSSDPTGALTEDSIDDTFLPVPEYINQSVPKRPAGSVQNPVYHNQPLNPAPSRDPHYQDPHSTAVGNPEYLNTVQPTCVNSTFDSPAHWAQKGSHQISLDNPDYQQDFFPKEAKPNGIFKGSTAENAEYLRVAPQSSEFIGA

Take `Cc1cc2cc(n1)-c1cnn(C)c1OCCC[C@@H](C)CN1/C(=N/C2=O)Nc2ccc(C(=O)N[C@H]3CCN(CCc4cc(F)c([C@H]5CCC(=O)NC5=O)c(F)c4)[C@@H](C)C3)cc21` [Example 270, (R,E)-N—((2S,4S)-1-(4-((R)-2,6-dioxopiperidin-3-yl)-3,5-difluorophenethyl)-2-methylpiperidin-4-yl)-1^1,2^6,7-trimethyl-3-oxo-5^2,5^3-dihydro-1^1H,5^1H-11-oxa-4-aza-5(2,1)-benzo[d]imidazola-2(2,4)-pyridina-1(4,5)-pyrazolacycloundecaphane-5^6-carboxamide]: in the assay with Del19/T790M/C797S EGFR, the DC50 was found to be 0.614 nM and the “Dmax (%)” value worked out at 81.16%. At L858R/T790M/C797S EGFR, this compound yielded a DC50 of 0.429 nM and a Dmax of 92.5%.

Take `Cc1cc2cc(n1)-c1cnn(C)c1OCCC[C@@H](C)CN1/C(=N/C2=O)Nc2ccc(C3CCN(CC4CN(c5cc(F)c([C@H]6CCC(=O)NC6=O)c(F)c5)C4)CC3)cc21` [Example 331, (R)-3-(2,6-difluoro-4-(3-((4-((R,E)-1^1,2^6,7-trimethyl-3-oxo-5^2,53-dihydro-1^1H,5^1H-11-oxa-4-aza-5(2,1)-benzo[d]imidazola-2(2,4)-pyridina-1(4,5)-pyrazolacycloundecaphane-5-yl)piperidin-1-yl)methyl)azetidin-1-yl)phenyl)piperidine-2,6-dione]: in the assay on Del19/T790M/C797S EGFR, half-maximal degradation (DC50) was put at 1.33 nM and the “Dmax (%)” value stood at 73.69%. Moreover, on L858R/T790M/C797S EGFR, the DC50 was found to be 0.71 nM and the Dmax is 97.1%.

`Cc1cc2cc(n1)-c1cnn(C)c1OCCC[C@@H](C)CN1/C(=N/C2=O)Nc2ccc(N3CCN(C[C@H]4CCN(c5cc(F)c([C@H]6CCC(=O)NC6=O)c(F)c5)C4)CC3=O)cc21` [Example 464, (R)-3-(2,6-difluoro-4-((R)-3-((3-oxo-4-((R,E)-1^1,2^6,7-trimethyl-3-oxo-5^2,5^3-dihydro-1^1H,5^1H-11-oxa-4-aza-5(2,1)-benzo[d]imidazola-2(2,4)-pyridina-1(4,5)-pyrazolacycloundecaphane-5^6-yl)piperazin-1-yl)methyl)pyrrolidin-1-yl)phenyl)piperidine-2,6-dione]: in the assay on Del19/T790M/C797S EGFR, half-maximal degradation (DC50) was put at 0.678 nM and the “Dmax (%)” value is 82.71%. On L858R/T790M/C797S EGFR, half-maximal degradation (DC50) was put at 0.646 nM and the greatest degradation seen (Dmax) turned out to be 85%.

Consider `Cc1cc2cc(n1)-c1cnn(C)c1OCCC[C@@H](C)CN1/C(=N/C2=O)Nc2ccc(N3CCN(CCNc4cc(F)c([C@H]5CCC(=O)NC5=O)c(F)c4)[C@H](CC#N)C3)cc21` [Example 442, 2-((R)-1-(2-((4-((R)-2,6-dioxopiperidin-3-yl)-3,5-difluorophenyl)amino)ethyl)-4-((R,E)-1^1,2^6,7-trimethyl-3-oxo-5^2,5^3-dihydro-1^1H,5^1H-11-oxa-4-aza-5(2,1)-benzo[d]imidazola-2(2,4)-pyridina-1(4,5)-pyrazolacycloundecaphane-5^6-yl)piperazin-2-yl)acetonitrile], for which, in the assay on Del19/T790M/C797S EGFR, the DC50 worked out at 0.721 nM and the “Dmax (%)” value is reported as 70.20%. On L858R/T790M/C797S EGFR, this compound returned a DC50 of 0.742 nM and a Dmax of 84.4%.

For `Cc1cc2cc(n1)-c1cnn(C)c1OCCC[C@@H](C)CN1/C(=N/C2=O)Nc2ccc(C(=O)N3CCN(C(=O)[C@@H]4CCN(c5cc(F)c([C@H]6CCC(=O)NC6=O)c(F)c5)C4)CC3)cc21` [Example 96, (R)-3-(2,6-difluoro-4-((R)-3-(4-((R,E)-1^1,2^6,7-trimethyl-3-oxo-5^2,5^3-dihydro-1^1H,5^1H-11-oxa-4-aza-5(2,1)-benzo[d]imidazola-2(2,4)-pyridina-1(4,5)-pyrazolacycloundecaphane-5^6-carbonyl)piperazine-1-carbonyl)pyrrolidin-1-yl)phenyl)piperidine-2,6-dione], in the assay on Del19/T790M/C797S EGFR, half-maximal degradation (DC50) was put at 0.4 nM and the “Dmax (%)” value is reported as 84.3%. On L858R/T790M/C797S EGFR, the half-maximal degradation concentration (DC50) was determined as 0.6 nM and the Dmax turned out to be 87.8%.

With `Cc1cc2cc(n1)-c1cnn(C)c1OCCC[C@@H](C)CN1/C(=N/C2=O)Nc2ccc(C(=O)N(C)CCCCc3cc(F)c([C@H]4CCC(=O)NC4=O)c(F)c3)cc21` [Example 339, (R,E)-N-(4-(4-((R)-2,6-dioxopiperidin-3-yl)-3,5-difluorophenyl)butyl)-N,1^1,2^6,7-tetramethyl-3-oxo-5^2,5^3-dihydro-1^1H,5^1H-11-oxa-4-aza-5(2,1)-benzo[d]imidazola-2(2,4)-pyridina-1(4,5)-pyrazolacycloundecaphane-5^6-carboxamide], in the assay with Del19/T790M/C797S EGFR, the DC50 stood at 0.671 nM and the “Dmax (%)” value turned out to be 70.76%. Moreover, on L858R/T790M/C797S EGFR, it took 0.865 nM to reach half-maximal degradation (DC50) and the Dmax worked out at 80.3%.

For `Cc1cc2cc(n1)-c1cnn(C)c1OCCC[C@@H](C)CN1/C(=N/C2=O)Nc2ccc(C(=O)N(C)[C@H]3CCN(CCNc4cc(F)c([C@H]5CCC(=O)NC5=O)c(F)c4)C[C@H]3F)cc21` [Example 351, (R,E)-N—((3R,4S)-1-(2-((4-((R)-2,6-dioxopiperidin-3-yl)-3,5-difluorophenyl)amino)ethyl)-3-fluoropiperidin-4-yl)-N,1^1,2^6,7-tetramethyl-3-oxo-5^2,5^3-dihydro-1^1H,5^1H-11-oxa-4-aza-5(2,1)-benzo[d]imidazola-2(2,4)-pyridina-1(4,5)-pyrazolacycloundecaphane-5^6-carboxamide], in the assay with Del19/T790M/C797S EGFR, the DC50 was 0.561 nM and the “Dmax (%)” value amounted to 83.91%. On L858R/T790M/C797S EGFR, this compound yielded a DC50 of 0.614 nM and a Dmax of 91.7%.

Regarding `Cc1cc2cc(n1)-c1cnn(C)c1OCCC[C@@H](C)CN1/C(=N/C2=O)Nc2ccc(N3CCN(CC4CN(c5cc(F)c([C@H]6CCC(=O)NC6=O)c(F)c5)C4)[C@@H](CO)C3)cc21` [Example 422, (R)-3-(2,6-difluoro-4-(3-(((R)-2-(hydroxymethyl)-4-((R,E)-1^1,2^6,7-trimethyl-3-oxo-5^2,5^3-dihydro-1^1H,5^1H-li-oxa-4-aza-5(2,1)-benzo[d]imidazola-2(2,4)-pyridina-1(4,5)-pyrazolacycloundecaphane-5^6-yl)piperazin-1-yl)methyl)azetidin-1-yl)phenyl)piperidine-2,6-dione], in the assay with Del19/T790M/C797S EGFR, half-maximal degradation (DC50) was put at 0.652 nM and the “Dmax (%)” value came to 83.55%. On L858R/T790M/C797S EGFR, this compound showed a half-maximal degradation concentration (DC50) of 0.856 nM and a Dmax of 92.2%.

For the compound `Cc1cc2cc(n1)-c1cnn(C)c1OCCC[C@@H](C)CN1/C(=N/C2=O)Nc2ccc(CN3CCN(C(=O)[C@@H]4CCN(c5cc(F)c([C@H]6CCC(=O)NC6=O)c(F)c5)C4(C)C)C[C@@H]3C)cc21` [Example 190, (R)-3-(4-((R)-2,2-dimethyl-3-((S)-3-methyl-4-(((R,E)-1^1,2^6,7-trimethyl-3-oxo-5^2,5^3-dihydro-1^1H,5^1H -11-oxa-4-aza-5(2,1)-benzo[d]imidazola-2(2,4)-pyridina-(4,5)-pyrazolacycloundecaphane-5^6-yl)methyl)piperazine-1-carbonyl)pyrrolidin-1-yl)-2,6-difluorophenyl)piperidine-2,6-dione], in the assay with Del19/T790M/C797S EGFR, the 50% degradation concentration (DC50) is 0.742 nM and the “Dmax (%)” value came to 64.16%. In addition, at L858R/T790M/C797S EGFR, half-maximal degradation (DC50) was put at 1.17 nM and the Dmax was found to be 82.2%.
